Experimental data taken from ChEMBL document CHEMBL5042526, “Design, Synthesis, and Biological Evaluation of Triazolone Derivatives as Potent PPARα/δ Dual Agonists for the Treatment of Nonalcoholic Steatohepatitis” (J Med Chem, 2022).
Calls of active or inactive are those of the source.

Experiments:
[1] = system: HepG2; test: Agonist activity against PPARalpha/delta (unknown origin) assessed as upregulation of PDK4 mRNA expression in human HepG2 cells incubated for 12 hrs by RT-PCR analysis; format: cell-based; conditions: filed as agonist, dose 8-200 nM
[2] = system: HepG2; test: Agonist activity against PPARalpha/delta (unknown origin) assessed as upregulation of ACADVL mRNA expression in human HepG2 cells at 8 nM incubated for 12 hrs by RT-PCR analysis; format: cell-based; conditions: filed as agonist
[3] = system: HepG2; test: Agonist activity against PPARalpha/delta (unknown origin) assessed as upregulation of PDK4 mRNA expression in human HepG2 cells at 8 nM incubated for 12 hrs by RT-PCR analysis; format: cell-based; conditions: filed as agonist
[4] = system: Mus musculus; test: In vivo agonist activity at PPARalpha/delta assessed as upregulation of Lpf5 mRNA expression in C57BL/6Nifdc mouse liver at 10 mg/kg, po for 4 days; format: functional, organism-based; conditions: time 4.0 day
[5] = system: Mus musculus; test: In vivo agonist activity at PPARalpha/delta assessed as upregulation of Cdkn1a mRNA expression in C57BL/6Nifdc mouse liver at 10 mg/kg, po for 4 days; format: functional, organism-based; conditions: time 4.0 day
[6] = system: Mus musculus; test: In vivo agonist activity against PPARalpha/delta assessed as upregulation of Mat2a mRNA expression in C57BL/6Nifdc mouse liver at 10 mg/kg, po for 4 days; format: functional, organism-based; conditions: time 4.0 day
[7] = system: Mus musculus; test: In vivo agonist activity against PPARalpha/delta assessed as upregulation of Vnn1 mRNA expression in C57BL/6Nifdc mouse liver at 10 mg/kg, po for 4 days; format: functional, organism-based; conditions: time 4.0 day
[8] = system: Mus musculus; test: In vivo agonist activity against PPARalpha/delta assessed as upregulation of -Cidea mRNA expression in C57BL/6Nifdc mouse skeletal muscle at 10 mg/kg, po for 4 days; format: functional, organism-based; conditions: time 4.0 day
[9] = system: Mus musculus; test: In vivo agonist activity against PPARalpha/delta assessed as upregulation of Cpt1b mRNA expression in C57BL/6Nifdc mouse skeletal muscle at 10 mg/kg, po for 4 days; format: functional, organism-based; conditions: time 4.0 day
[10] = system: Mus musculus; test: In vivo agonist activity against PPARalpha/delta assessed as upregulation of -Retsat mRNA expression in C57BL/6Nifdc mouse skeletal muscle at 10 mg/kg, po for 4 days; format: functional, organism-based; conditions: time 4.0 day
[11] = system: Mus musculus; test: In vivo agonist activity against PPARalpha/delta assessed as upregulation of Acot1 mRNA expression in C57BL/6Nifdc mouse skeletal muscle at 10 mg/kg, po for 4 days; format: functional, organism-based; conditions: time 4.0 day
[12] = system: Mus musculus; test: In vivo agonist activity against PPARalpha/delta assessed as upregulation of Ucp3 mRNA expression in C57BL/6Nifdc mouse skeletal muscle at 10 mg/kg, po for 4 days; format: functional, organism-based; conditions: time 4.0 day
[13] = system: Mus musculus; test: In vivo agonist activity against PPARalpha/delta assessed as upregulation of Angptl4 mRNA expression in C57BL/6Nifdc mouse skeletal muscle at 10 mg/kg, po for 4 days; format: functional, organism-based; conditions: time 4.0 day
[14] = system: Mus musculus; test: In vivo agonist activity against PPARalpha/delta assessed as upregulation of […] mRNA expression in C57BL/6Nifdc mouse skeletal muscle at 10 mg/kg, po for 4 days; format: functional, organism-based; conditions: time 4.0 day
[15] = target: T1, Nuclear receptor subfamily 1 group I member 2 (Homo sapiens, UniProt O75469); test: Agonist activity at human PXR (138 to 434 residues) in Cos7 cells transfected with LBD-Gal4 and pGL435 Gal4 UAS Luc reporter plasmid at 10 uM by reporter gene assay; format: cell-based; conditions: cos7, 10 µM
T1 sequence (O75469 whole entry): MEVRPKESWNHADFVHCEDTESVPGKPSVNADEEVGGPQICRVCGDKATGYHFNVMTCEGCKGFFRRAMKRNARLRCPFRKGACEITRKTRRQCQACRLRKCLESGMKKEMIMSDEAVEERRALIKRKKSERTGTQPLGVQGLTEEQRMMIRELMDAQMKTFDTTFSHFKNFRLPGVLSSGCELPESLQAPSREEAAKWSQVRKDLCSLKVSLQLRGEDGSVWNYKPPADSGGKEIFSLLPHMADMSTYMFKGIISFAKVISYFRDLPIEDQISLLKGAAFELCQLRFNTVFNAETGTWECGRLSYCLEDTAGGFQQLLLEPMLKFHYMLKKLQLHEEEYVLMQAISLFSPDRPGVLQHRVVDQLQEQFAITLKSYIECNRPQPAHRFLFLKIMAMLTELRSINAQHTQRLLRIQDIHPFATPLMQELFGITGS

[16] = target: Voltage-gated inwardly rectifying potassium channel KCNH2 (Homo sapiens, UniProt Q12809); test: Inhibition of hERG potassium channel in HEK293 cells upto 30 uM by whole-cell patch clamp assay; format: toxicity, cell-based
[17] = system: Mus musculus; test: Anti-NASH activity in HF-CDAA-induced nonalcoholic steatohepatitis C57BL/6JNifdc mouse model assessed as reduction in steatosis by measuring hepatic triglyceride level at 3 to 30 mg/kg, po; format: functional, organism-based; conditions: dose 3-30 mg/kg
[18] = system: Mus musculus; test: Anti-NASH activity in HF-CDAA-induced nonalcoholic steatohepatitis C57BL/6JNifdc mouse model assessed as decrease in level of serum ALT 10 mg/kg, po by automatic biochemical analysis; format: functional, organism-based
[19] = system: Mus musculus; test: Anti-NASH activity in HF-CDAA-induced nonalcoholic steatohepatitis C57BL/6JNifdc mouse model assessed as decrease in level of serum AST 10 mg/kg, po by automatic biochemical analysis; format: functional, organism-based
[20] = system: Mus musculus; test: Anti-inflammatory activity in HF-CDAA-induced nonalcoholic steatohepatitis C57BL/6JNifdc mouse model assessed as decrease in Ccl4 mRNA expression at 10 mg/kg, po; format: functional, organism-based
[21] = system: Mus musculus; test: Anti-fibrosis effect in HF-CDAA-induced nonalcoholic steatohepatitis C57BL/6JNifdc mouse model assessed as expression of Tgfb1 marker at 10 mg/kg, po after 20 hrs by Western blot analysis; format: functional, organism-based
[22] = system: C2C12; test: Agonist activity against PPARalpha/delta (unknown origin) assessed as upregulation of Angpt14 mRNA expression in […] cells incubated for 12 hrs by RT-PCR analysis; format: cell-based; conditions: filed as agonist, dose 8-200 nM
[23] = system: C2C12; test: Agonist activity against PPARalpha/delta (unknown origin) assessed as upregulation of Cpt1A mRNA expression in […] cells at 8 nM incubated for 12 hrs by RT-PCR analysis; format: cell-based; conditions: filed as agonist
[24] = system: AML12; test: Agonist activity against PPARalpha/delta (unknown origin) assessed as upregulation of ACADVL mRNA expression in […] cells at 8 nM incubated for 12 hrs by RT-PCR analysis; format: cell-based; conditions: filed as agonist

Sequence of Voltage-gated inwardly rectifying potassium channel KCNH2 (Q12809 whole entry): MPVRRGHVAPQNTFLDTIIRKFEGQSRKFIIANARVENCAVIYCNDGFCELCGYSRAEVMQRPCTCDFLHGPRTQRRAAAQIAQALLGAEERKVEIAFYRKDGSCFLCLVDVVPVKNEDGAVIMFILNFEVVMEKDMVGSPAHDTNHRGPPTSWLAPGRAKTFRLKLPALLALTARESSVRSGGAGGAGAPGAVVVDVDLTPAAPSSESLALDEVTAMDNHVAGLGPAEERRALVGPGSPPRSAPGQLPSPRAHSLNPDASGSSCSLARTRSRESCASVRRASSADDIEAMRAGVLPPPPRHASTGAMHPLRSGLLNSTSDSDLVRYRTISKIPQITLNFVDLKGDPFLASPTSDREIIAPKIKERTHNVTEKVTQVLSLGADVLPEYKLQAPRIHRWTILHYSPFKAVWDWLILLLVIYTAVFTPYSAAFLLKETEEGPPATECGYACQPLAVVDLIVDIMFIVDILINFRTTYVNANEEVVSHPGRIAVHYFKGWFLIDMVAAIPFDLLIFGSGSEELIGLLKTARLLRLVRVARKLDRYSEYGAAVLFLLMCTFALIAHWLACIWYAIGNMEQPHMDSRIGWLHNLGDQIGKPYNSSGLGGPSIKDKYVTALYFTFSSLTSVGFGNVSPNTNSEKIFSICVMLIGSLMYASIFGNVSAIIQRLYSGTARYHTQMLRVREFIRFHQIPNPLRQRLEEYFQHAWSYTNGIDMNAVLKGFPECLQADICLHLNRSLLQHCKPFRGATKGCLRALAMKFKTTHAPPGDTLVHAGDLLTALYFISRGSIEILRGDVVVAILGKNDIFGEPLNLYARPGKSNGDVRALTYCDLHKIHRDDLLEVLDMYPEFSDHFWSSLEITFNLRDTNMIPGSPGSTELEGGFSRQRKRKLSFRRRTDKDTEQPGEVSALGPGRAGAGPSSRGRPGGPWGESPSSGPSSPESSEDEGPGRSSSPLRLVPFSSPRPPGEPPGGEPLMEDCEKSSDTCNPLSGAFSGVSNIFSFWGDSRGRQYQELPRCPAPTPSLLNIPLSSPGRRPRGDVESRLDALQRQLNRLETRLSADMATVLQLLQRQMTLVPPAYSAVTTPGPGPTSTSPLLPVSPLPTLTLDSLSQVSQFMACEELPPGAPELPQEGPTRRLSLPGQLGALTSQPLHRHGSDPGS

Cc1cc(Cn2ncn(-c3ccc(OC(F)(F)F)cc3)c2=O)cc(C)c1OC(C)(C)C(=O)O
active: Activity [1] Dose-Dependent Effect | Activity [2] | Activity [3] | Activity [4] | Activity [5] | Activity [6] | Activity [7] | Activity [8] | Activity [9] | Activity [10] | Activity [11] | Activity [12] | Activity [13] | Activity [14] | Activity [17] | Activity [18] | Activity [19] | Activity [20] | Activity [21] | Activity [22] Dose-Dependent Effect | Activity [23] | Activity [24]
Active: inhibition (INH) [16]
Not Active: Activity [15]
